Patent US11213522B2, “Autoimmune-induced glutamatergic receptor dysfunction methods and treatments” (SARAH HERZOG MEMORIAL HOSPITAL EZRAT NASHIM ASSOCIATION, priority 2013, dated 2022)

What was measured:
Assay type in all cases: in vivo, human
[1] = test system: patient positive for anti-NR1 NMDAR antibodies; assay: Side effects and tolerability (UKU Side Effect Rating Scale, medical work-up), D-serine clinical trial; details: throughout the study; 1500 to 4000 mg/day over 6 weeks, adjuvant
Description: (§1) The trial consisted of two periods, starting with a 2 week lead-in/stabilization period (−2-0) following which the patient was entered in the second period of the study which consisted of a 6 week (0-6), open-label, fixed dose therapy phase. During this phase, the patient received adjuvant treatment with DSR, whose dose was increased from 1500 mg/day (week 1) to 2000 mg/day (weeks 2 and 3) to 3000 mg/day (weeks 4 and 5) and to 4000 mg/day (week 6). The doses of the ongoing medication received by the patient remained fixed throughout the study and no changes in medication were performed.
The patient underwent prior to entering the study and at study weeks 3 and 6 a medical work-up including complete medical history, and routine clinical blood work, including blood count+differential, lipids, and glucose levels, kidney, thyroid, and liver function parameters, urinalysis, and blood pressure measurements. Abdominal ultrasound was performed prior to study entry and electroencephalogram (EEG) and brain magnetic resonance imaging (MR1) were obtained pre- and post-DSR administration.
The assessment procedures used in the study included clinical and neurocognitive examinations. Motor and psychiatric symptoms as well as side-effects were rated biweekly throughout the study. […] In conjunction with UKU ratings, patient's vital signs and body weight were monitored throughout the study.

[2] = test system: patient positive for anti-NR1 NMDAR antibodies; assay: Test of Attentional Vigilance (TOAV); details: post-6 weeks D-serine
Description: as §1
(§2) In addition, cognitive performance was assessed pre- and post DSR treatment. For this purpose, a 1.5-hour neurocognitive assessment battery (nine computerized and two paper/pencil tests) was employed that measures accuracy and speed of performance in major cognition domains, including attention/vigilance, planning, short-term and working memory, decision making, abstraction and mental flexibility. All the tests were formatted like games and puzzles, and were administered to the patient as part of the comprehensive neuropsychiatric assessment at baseline and the end of study. The neurocognitive battery included the 1) Test of Attentional Vigilance (TOAV, (Forbes, 1998, Journal of Clinical Psychology 54:461-476; Greenberg, 1993, Journal of Child Psychology and Psychiatry 34: 1019-30)); 2) Tower of London (TOL, (Shailice, 1982, Specific impairments of planning Philosophical Transactions of the Royal Society of London. Series B, Biological Sciences 298:199-209); 3-4) Digit Span Test (DST, forward and backward (Wechsler 1997, The Wechsler adult intelligence scale-III. San Antonio, Tex.: Psychological Corporation; Kaplan 1991, The WAIS-R as a neuropsychological instrument. San Antonio, Tex.: The Psychological Corporation; Lamar et al., 2007, Neuropsychologia 45:245-54; Lamar et al., 2008, Neuropsychologia 46:2597-601)); 5-6) Corsi Block Tapping Test (CBTT, forward and backward, (Corsi, 1972, Dissertation Abstracts International. […]

[3] = test system: patient positive for anti-NR1 NMDAR antibodies; assay: Trail-Making-Test (TMT) part A and part B; details: post-6 weeks D-serine
Description: as §1
(§3) In addition, cognitive performance was assessed pre- and post DSR treatment. For this purpose, a 1.5-hour neurocognitive assessment battery (nine computerized and two paper/pencil tests) was employed that measures accuracy and speed of performance in major cognition domains, including attention/vigilance, planning, short-term and working memory, decision making, abstraction and mental flexibility. All the tests were formatted like games and puzzles, and were administered to the patient as part of the comprehensive neuropsychiatric assessment at baseline and the end of study. […]

[4] = test system: patient positive for anti-NR1 NMDAR antibodies; assay: Digit Span Test (DST), forward and backward; details: post-6 weeks D-serine
Description: as §1
as §2, with “International. 34:819B; Kessels et al., 2000, Applied Neuropsychology 7:252-58, Kessels et al., 2008, Assessment 15:426-34)); 7) Flanker Task (Erikson and Eriksen, 1974; Perception & Psychophysics 25: 249-63, Stins et. al., 2007, Advances in Cognitive Psychology 3:389-96); 8) Time Wall (Perez et al., 1987, Unified Tri-services cognitive performance assessment battery: review and methodology; DTIC Document ADA181697, http://www.dtic.mil/dtic/tr/fulltext/u2/a81697.pdf); and Wisconsin Card Sort Test (WCST, (Berg, 1948, J Gen Psychol39:15-22; Nelson, 1976, Cortex 12:313-24)).” for “International.”

[5] = test system: patient positive for anti-NR1 NMDAR antibodies; assay: Corsi Block Tapping Test (CBTT), forward and backward; details: post-6 weeks D-serine
Description: as §1
as §2, with “International. 34:819B; Kessels et al., 2000, Applied Neuropsychology 7:252-58, Kessels et al., 2008, Assessment 15:426-34)); 7) Flanker Task (Erikson and Eriksen, 1974; Perception & Psychophysics 25: 249-63, Stins et. al., 2007, Advances in Cognitive Psychology 3:389-96); 8) Time Wall (Perez et al., 1987, Unified Tri-services cognitive performance assessment battery: review and methodology; DTIC Document ADA181697, http://www.dtic.mil/dtic/tr/fulltext/u2/a81697.pdf); and Wisconsin Card Sort Test (WCST, (Berg, 1948, J Gen Psychol39:15-22; Nelson, 1976, Cortex 12:313-24)).” for “International.”

[6] = test system: patient positive for anti-NR1 NMDAR antibodies; assay: Flanker Task; details: post-6 weeks D-serine
Description: as §1
In addition, cognitive performance was assessed pre- and post DSR treatment. For this purpose, a 1.5-hour neurocognitive assessment battery (nine computerized and two paper/pencil tests) was employed that measures accuracy and speed of performance in major cognition domains, including attention/vigilance, planning, short-term and working memory, decision making, abstraction and mental flexibility. All the tests were formatted like games and puzzles, and were administered to the patient as part of the comprehensive neuropsychiatric assessment at baseline and the end of study. The neurocognitive battery included the 1) Test of Attentional Vigilance (TOAV, (Forbes, 1998, Journal of Clinical Psychology 54:461-476; Greenberg, 1993, Journal of Child Psychology and Psychiatry 34: 1019-30)); 2) Tower of London (TOL, (Shailice, 1982, Specific impairments of planning Philosophical Transactions of the Royal Society of London. Series B, Biological Sciences 298:199-209); 3-4) Digit Span Test (DST, forward and backward (Wechsler 1997, The Wechsler adult intelligence scale-III. San Antonio, Tex.: Psychological Corporation; Kaplan 1991, The WAIS-R as a neuropsychological instrument. San Antonio, Tex.: The Psychological Corporation; Lamar et al., 2007, Neuropsychologia 45:245-54; Lamar et al., 2008, Neuropsychologia 46:2597-601)); 5-6) Corsi Block Tapping Test (CBTT, forward and backward, (Corsi, 1972, Dissertation Abstracts International. 34:819B; Kessels et al., 2000, Applied Neuropsychology 7:252-58, Kessels et al., 2008, Assessment 15:426-34)); 7) Flanker Task (Erikson and Eriksen, 1974; Perception & Psychophysics 25: 249-63, Stins et. al., 2007, Advances in Cognitive Psychology 3:389-96); 8) Time Wall (Perez et al., 1987, Unified Tri-services cognitive performance assessment battery: review and methodology; DTIC Document ADA181697, http://www.dtic.mil/dtic/tr/fulltext/u2/a81697.pdf); and Wisconsin Card Sort Test (WCST, (Berg, 1948, J Gen Psychol39:15-22; Nelson, 1976, Cortex 12:313-24)). In addition to the nine computerized tests, the patient completed two paper/pencil tests: 10-11) part A and part B of the Trail-Making-Test (TMT, (Reitan, 1958, Percept. Mot Skills 8:271-76; Reitan, 1992 Trail Making Test: Manual for administration and scoring. Tucson, Ariz.: Reitan Neuropsychology Laboratory)) according to the guidelines presented by Spreen and Strauss (1998)). All neurocognitive testing was completed in a private and quiet setting to limit any distractions.

[7] = test system: patient positive for anti-NR1 NMDAR antibodies; assay: Neurocognitive assessment battery (overall)
Description: as §1, §3

[8] = pre-treatment subject unable to complete task

## N[C@H](CO)C(=O)O [D-serine]
[1]
  Side effects: no side effects were registered
  Tolerability of DSR treatment: well tolerated
[2]; pre-treatment 1
  TOAV Commission errors: 0
  TOAV Omission errors: 2
[2]; pre-treatment 562 ± 103
  TOAV Response time, mean ± SD: 523 ± 93 milliseconds
[3]; pre-treatment 42
  TMT Part A: 60.71 s
[3]; pre-treatment 102
  TMT Part B: 86.35 s
[4]; pre-treatment 6
  DST Forward Span Length (3-9): 7
[4]; pre-treatment 8
  DST Forward Number Correct (0-14): 9
[4]; [8]
  DST Backward Number Correct (0-14): 3
  DST Backward Span Length (3-9): 4
[5]; pre-treatment 4
  CBTT Backward Span Length (2-9): 3.5
[5]; pre-treatment 5
  CBTT Forward Span Length (2-9): 4
[5]; pre-treatment 6
  CBTT Backward Number Correct (0-16): 5
[5]; pre-treatment 8
  CBTT Forward Number Correct (0-16): 6
[6]; pre-treatment 0.450 ± 0.499
  Flanker Task Incongruous accuracy, mean ± SD: 0.575 ± 0.494 proportion correct
[6]; pre-treatment 0.475 ± 0.499
  Flanker Task Congruous accuracy, mean ± SD: 0.65 ± 0.476 proportion correct
  Flanker Task Neutral accuracy, mean ± SD: 0.65 ± 0.476 proportion correct
[6]; pre-treatment 725.03 ± 130.03
  Flanker Task Congruous response time, mean ± SD: 651.93 ± 130.16 milliseconds
[6]; pre-treatment 732.18 ± 127.96
  Flanker Task Neutral response time, mean ± SD: 688.23 ± 99.19 milliseconds
[6]; pre-treatment 737.38 ± 131.34
  Flanker Task Incongruous response time, mean ± SD: 713.3 ± 102.14 milliseconds
[7]; post-DSR treatment, not comprehended/performed at baseline
  Completion of DST, TMT and WCST tasks: successfully completed
[7]; post-DSR vs baseline, improvements in working memory, abstraction and mental flexibility
  Effect upon cognitive performance (test battery): favorable effect
